The values below come from patent US9492471B2, “Methods of treating a disease or disorder associated with Bruton'S Tyrosine Kinase” (Celgene Avilomics Research, Inc., priority 2013, dated 2016).

Common to all, as to test: HotSpot kinase profiling
Holding throughout (assay type): biochemical

The target in one experiment is T1, DCAMKL1 (Homo sapiens, UniProt O15075).
T1 construct: purchased Reaction Biology Corp
T1 sequence (O15075 1-740): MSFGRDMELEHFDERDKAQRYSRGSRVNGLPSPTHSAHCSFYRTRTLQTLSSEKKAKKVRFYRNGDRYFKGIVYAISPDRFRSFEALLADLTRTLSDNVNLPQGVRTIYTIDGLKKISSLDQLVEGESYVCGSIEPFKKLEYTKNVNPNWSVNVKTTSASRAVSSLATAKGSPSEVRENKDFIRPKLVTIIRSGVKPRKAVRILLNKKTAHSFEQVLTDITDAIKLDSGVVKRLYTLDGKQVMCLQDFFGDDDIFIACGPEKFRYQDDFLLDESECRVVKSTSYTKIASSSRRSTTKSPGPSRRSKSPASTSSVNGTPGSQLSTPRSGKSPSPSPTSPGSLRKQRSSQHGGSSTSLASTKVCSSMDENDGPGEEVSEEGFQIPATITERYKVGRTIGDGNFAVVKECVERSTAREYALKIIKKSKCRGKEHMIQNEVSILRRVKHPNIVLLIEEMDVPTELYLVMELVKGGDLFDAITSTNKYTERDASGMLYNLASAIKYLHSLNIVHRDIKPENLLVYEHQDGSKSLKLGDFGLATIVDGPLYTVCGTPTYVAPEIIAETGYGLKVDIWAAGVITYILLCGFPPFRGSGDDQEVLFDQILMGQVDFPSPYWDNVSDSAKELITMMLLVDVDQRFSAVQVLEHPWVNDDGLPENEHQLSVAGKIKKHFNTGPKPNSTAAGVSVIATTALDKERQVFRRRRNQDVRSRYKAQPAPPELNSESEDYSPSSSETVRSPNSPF
The method in brief:
(§1)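 Percent inhibition, averaged when run more than once and referenced to a DMSO negative control, came from a radioactive filter-binding readout on P81 paper. Reactions of kinase with freshly made substrate and cofactors ran for 2 h at room temperature.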

A further experiment has as its target T2, TEC (Homo sapiens, UniProt P42680).
T2 construct: purchased Reaction Biology Corp
T2 sequence (P42680 1-631): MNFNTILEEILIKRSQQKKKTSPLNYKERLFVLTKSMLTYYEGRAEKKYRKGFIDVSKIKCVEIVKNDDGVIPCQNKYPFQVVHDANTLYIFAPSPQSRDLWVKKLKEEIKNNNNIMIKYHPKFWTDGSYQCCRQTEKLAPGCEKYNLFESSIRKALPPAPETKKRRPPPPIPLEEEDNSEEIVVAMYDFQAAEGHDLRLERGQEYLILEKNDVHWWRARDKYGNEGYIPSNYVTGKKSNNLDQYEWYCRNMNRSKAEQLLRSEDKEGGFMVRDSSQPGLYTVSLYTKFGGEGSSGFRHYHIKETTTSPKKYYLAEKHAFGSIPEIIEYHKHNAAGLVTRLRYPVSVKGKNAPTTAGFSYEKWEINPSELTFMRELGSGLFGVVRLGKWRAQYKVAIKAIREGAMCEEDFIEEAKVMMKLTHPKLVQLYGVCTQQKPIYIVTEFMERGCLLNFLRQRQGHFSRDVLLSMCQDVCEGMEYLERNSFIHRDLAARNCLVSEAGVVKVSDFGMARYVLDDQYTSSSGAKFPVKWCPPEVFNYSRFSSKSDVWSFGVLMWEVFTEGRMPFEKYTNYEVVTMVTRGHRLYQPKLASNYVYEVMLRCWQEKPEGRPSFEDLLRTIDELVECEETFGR
The method in brief:
as §1

The target in a further experiment is T3, MUSK (Homo sapiens, UniProt O15146).
T3 construct: purchased Reaction Biology Corp
T3 sequence (O15146 24-869): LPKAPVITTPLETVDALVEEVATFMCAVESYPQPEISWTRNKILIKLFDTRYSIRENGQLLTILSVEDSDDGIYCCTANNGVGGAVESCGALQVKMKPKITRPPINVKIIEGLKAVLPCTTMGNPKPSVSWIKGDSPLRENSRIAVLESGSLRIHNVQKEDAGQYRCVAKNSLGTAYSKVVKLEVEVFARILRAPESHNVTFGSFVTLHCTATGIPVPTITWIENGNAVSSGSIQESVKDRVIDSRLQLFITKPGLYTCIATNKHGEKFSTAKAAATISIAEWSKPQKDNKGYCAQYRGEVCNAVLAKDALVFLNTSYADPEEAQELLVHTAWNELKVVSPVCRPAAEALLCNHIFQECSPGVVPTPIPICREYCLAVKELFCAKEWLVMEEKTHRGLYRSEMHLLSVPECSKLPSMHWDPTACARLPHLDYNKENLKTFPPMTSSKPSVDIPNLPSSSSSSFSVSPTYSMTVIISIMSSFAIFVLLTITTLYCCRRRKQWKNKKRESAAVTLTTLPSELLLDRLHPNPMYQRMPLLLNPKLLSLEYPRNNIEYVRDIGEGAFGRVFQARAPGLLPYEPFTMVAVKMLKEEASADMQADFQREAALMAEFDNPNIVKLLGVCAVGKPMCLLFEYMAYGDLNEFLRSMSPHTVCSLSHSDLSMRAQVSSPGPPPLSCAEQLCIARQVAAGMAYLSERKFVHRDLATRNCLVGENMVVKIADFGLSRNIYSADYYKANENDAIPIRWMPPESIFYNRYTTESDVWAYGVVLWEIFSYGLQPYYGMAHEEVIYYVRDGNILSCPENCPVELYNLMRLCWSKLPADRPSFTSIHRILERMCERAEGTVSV
The method, boiled down: as §1

The target in a further experiment is T4, TYK2 (Homo sapiens, UniProt P29597).
T4 construct: purchased Reaction Biology Corp
The method, boiled down: as §1

The mark [1] stands for this setting: read-out: % Enzyme Activity (relative to DMSO controls) Run 1.
The mark [2] stands for this setting: read-out: % Enzyme Activity (relative to DMSO controls) Run 2.

Molecules are shown by their SMILES. Like-named read-outs stand apart in the source and are kept apart here.

T4 sequence (P29597 whole entry): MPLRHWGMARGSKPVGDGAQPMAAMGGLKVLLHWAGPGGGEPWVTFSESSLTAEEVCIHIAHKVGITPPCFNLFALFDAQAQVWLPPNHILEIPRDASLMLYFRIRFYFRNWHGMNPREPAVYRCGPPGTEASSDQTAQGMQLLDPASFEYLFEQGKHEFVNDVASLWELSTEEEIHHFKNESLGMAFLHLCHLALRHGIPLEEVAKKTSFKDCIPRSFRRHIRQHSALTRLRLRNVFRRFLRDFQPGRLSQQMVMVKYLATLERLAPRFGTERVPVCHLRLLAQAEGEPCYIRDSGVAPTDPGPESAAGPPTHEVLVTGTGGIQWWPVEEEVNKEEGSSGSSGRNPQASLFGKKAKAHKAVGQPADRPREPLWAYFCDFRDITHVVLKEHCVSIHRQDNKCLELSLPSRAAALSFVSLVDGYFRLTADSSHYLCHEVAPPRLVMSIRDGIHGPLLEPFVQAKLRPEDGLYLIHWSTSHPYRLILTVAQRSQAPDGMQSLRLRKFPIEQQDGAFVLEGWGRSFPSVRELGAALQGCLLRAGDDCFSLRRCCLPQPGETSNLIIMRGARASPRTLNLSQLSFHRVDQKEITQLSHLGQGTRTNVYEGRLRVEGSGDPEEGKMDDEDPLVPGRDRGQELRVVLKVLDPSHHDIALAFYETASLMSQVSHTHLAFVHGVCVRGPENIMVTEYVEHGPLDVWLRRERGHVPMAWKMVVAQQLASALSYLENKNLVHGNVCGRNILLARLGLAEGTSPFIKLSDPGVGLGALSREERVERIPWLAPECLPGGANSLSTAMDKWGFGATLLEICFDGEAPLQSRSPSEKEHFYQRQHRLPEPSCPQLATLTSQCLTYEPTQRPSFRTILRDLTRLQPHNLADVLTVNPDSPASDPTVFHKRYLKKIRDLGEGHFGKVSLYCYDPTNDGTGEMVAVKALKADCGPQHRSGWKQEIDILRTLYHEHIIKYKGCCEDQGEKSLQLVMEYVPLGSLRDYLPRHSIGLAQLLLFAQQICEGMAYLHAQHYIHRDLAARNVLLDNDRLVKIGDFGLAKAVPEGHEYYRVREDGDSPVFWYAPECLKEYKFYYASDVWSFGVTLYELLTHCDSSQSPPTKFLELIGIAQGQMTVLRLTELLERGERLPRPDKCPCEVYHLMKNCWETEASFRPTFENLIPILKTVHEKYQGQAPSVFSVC

As a reminder, the inhibition is the share of the control response that was lost under treatment. Read a low inhibition as a weak effect. For `C=CC(=O)Nc1cccc(Nc2nc(Nc3ccc(OCCOC)c(F)c3)ncc2F)c1` [Compound 2], the inhibition at 3 µM against DCAMKL1 was 2.02%; on TEC, 89.1%; against MUSK it was 30.9%; against TYK2, 52.6%. Also, the remaining activity at 3 µM on DCAMKL1 (setting [1]) worked out at 98.4%; on DCAMKL1 (setting [2]), 97.5%; on TEC (setting [1]) it was 10.4%; at TEC (setting [2]), 11.5%; on MUSK (setting [1]), 70.2%; at MUSK (setting [2]) it was 68%. Besides, the remaining activity at 3 µM on TYK2 (setting [1]) stood at 48.2%; on TYK2 (setting [2]), 46.6%.
